Data: patent publication US20230391756A1, “NEW COMPOUND” (JANSSEN PHARMACEUTICA NV, priority 2020, published 2023)

Columns and labels:
[1] = tested on: NLRP3 inflammasome pathway (IL-1β); assay: PBMC assay: IL-1β release after LPS stimulation; type: cell-based; conditions: human PBMCs, 100 ng/ml LPS for 6 hrs, MSD
Experimental: The activity of a compound according to the present invention can be assessed by in vitro methods.
(§1) Peripheral venous blood was collected from healthy individuals and human peripheral blood mononuclear cells (PBMCs) were isolated from blood by Ficoll-Histopaque (Sigma-Aldrich, A0561) density gradient centrifugation. After isolation, PBMCs were stored in liquid nitrogen for later use. Upon thawing, PBMC cell viability was determined in growth medium (RPMI media supplemented with 10% fetal bovine serum, 1% Pen-Strep and 1% L-glutamine). […] PBMCs were added at a density of 7.5×10^4 cells per well and incubated for 30 min in a 5% CO2 incubator at 37° C. LPS stimulation was performed by addition of 100 ng/ml LPS (final concentration, Invivogen, tlrl-smlps) for 6 hrs followed by collection of cellular supernatant and the analysis of IL-1β (μM) and TNF cytokines levels (μM) via MSD technology according to manufacturers' guidelines (MSD, K151A0H).

TNF = assay: PBMC assay: TNF cytokine level after LPS stimulation; type: cell-based; conditions: human PBMCs, 100 ng/ml LPS for 6 hrs, MSD, read-out: TNFα EC50
Experimental: as §1

Row | SMILES | IC50 [1] [µM] | EC50 (TNF) [µM]
1 | Cc1nnc2n1C[C@H](NC(=O)Cc1nn(C(C)C)c3cc(C(F)(F)F)ccc3c1=O)CC2 (single isomer, unassigned) [F-12] | > 20 | > 20
2 | Cc1nnc2n1C[C@@H](NC(=O)Cc1nn(C(C)C)c3cc(C(F)(F)F)ccc3c1=O)CC2 (single isomer, unassigned) [F-13] | 2.7 | > 20
3 | CCN1CC[C@@H](C)[C@@H](NC(=O)Cc2nn(C(C)C)c3cc(C(F)(F)F)ccc3c2=O)C1 (single isomer, unassigned) [F-88] | > 20 | > 20
4 | CCN1CC[C@H](C)[C@H](NC(=O)Cc2nn(C(C)C)c3cc(C(F)(F)F)ccc3c2=O)C1 (single isomer, unassigned) [F-103] | 4.97 | > 20
5 | CC(C)n1nc(CC(=O)N[C@H]2C[C@@](C)(O)C2)c(=O)c2ccc(Br)cc21 [F-3] | 0.123 | > 20
6 | CC(C)n1nc(CC(=O)Nc2ccc3nncn3c2)c(=O)c2ccc(Br)cc21 [F-4] | 0.071 | 9.56
7 | CCn1nc(CC(=O)Nc2ccncn2)c(=O)c2ccc(Br)cc21 [F-7] | 0.45 | > 20
8 | CCn1nc(CC(=O)Nc2ccncn2)c(=O)c2ccc(C3CC3)cc21 [F-8] | 0.66 | 12.9
9 | CC(C)n1nc(CC(=O)NC2CC(C(C)(C)O)C2)c(=O)c2ccc(C(F)(F)F)cc21 (stereo not shown) [F-9] | 10.2 | > 20
10 | Cc1nnc2n1CC(NC(=O)Cc1nn(C(C)C)c3cc(C(F)(F)F)ccc3c1=O)CC2 (stereo not shown) [F-11] | 4.02 | > 20
11 | CC(C)n1nc(CC(=O)Nc2cc(C(F)(F)F)ncn2)c(=O)c2ccc(C(F)(F)F)cc21 [F-16] | 6.73 | > 20
12 | CCn1nc(CC(=O)N[C@H]2C[C@@](C)(OC(=O)Cc3nn(CC)c4cc(Br)ccc4c3=O)C2)c(=O)c2ccc(Br)cc21 [F-23] | > 10 | > 10
13 | CC(C)n1nc(CC(=O)Nc2ccc3nccn3c2)c(=O)c2ccc(C(F)(F)F)cc21 [F-35] | 0.79 | 19.9
14 | CC(C)n1nc(CC(=O)Nc2ccn3ncnc3c2)c(=O)c2ccc(C(F)(F)F)cc21 [F-37] | 1.65 | > 20
15 | CC(C)n1nc(CC(=O)Nc2ccn3ccnc3c2)c(=O)c2ccc(C(F)(F)F)cc21 [F-38] | 1.75 | > 20
16 | CC(C)n1nc(CC(=O)Nc2ccc3cnnn3c2)c(=O)c2ccc(C(F)(F)F)cc21 [F-40] | 2.26 | 19.2
17 | CC(C)n1nc(CC(=O)Nc2cc3c(cn2)ncn3C)c(=O)c2ccc(C(F)(F)F)cc21 [F-44] | 4.91 | > 20
18 | CC(C)n1nc(CC(=O)Nc2ccc(=O)n(C)c2)c(=O)c2ccc(C(C)(F)F)cc21 [F-52] | 0.84 | 16.1
19 | CC(C)n1nc(CC(=O)Nc2ccc(=O)n(C)n2)c(=O)c2ccc(C(C)(F)F)cc21 [F-53] | 0.71 | 9.74
20 | CC(C)n1nc(CC(=O)Nc2ccc3ncn(C)c3n2)c(=O)c2ccc(C(F)(F)F)cc21 [F-54] | 0.685 | > 20
21 | O=C(Cc1nn(C2CC2)c2cc(C3CC3)ccc2c1=O)Nc1ccc2nccn2n1 [F-55] | 0.62 | > 20
22 | CCn1nc(CC(=O)Nc2ccc3nncn3n2)c(=O)c2ccc(C(F)(F)F)cc21 [F-56] | 0.53 | 18.5
23 | O=C(Cc1nn(C2CC2)c2cc(C3CC3)ccc2c1=O)Nc1ccc2nncn2c1 [F-59] | 0.37 | > 20
